Data reported in US20240358692A1, “TREATMENT OF SCLERODERMA” (Aisa Pharma, Inc., priority 2023, published 2024).

What was measured:
participants with SSc-RP [1] = test: SHAQ - Visual Analog Scale - Overall Disease Severity; type: in vivo, human; conditions: for % change overall SSc Disease Severity: SHAQ, mITT Part A
From the text: The standard, validated, patient reported outcome measures tool for SSc patients, the Scleroderma Health Assessment Questionnaire (SHAQ), will be used to assess the participant qualify of life. Details are attached in the Appendix. The participant quality of life will be scored, and a disability index calculated for each questionnaire completed by the patient at Screening and each in-clinic visit. The absolute change in participant quality of life from baseline to the end of each dosing period will be calculated similar to frequency data as before.
The standard, validated, patient reported outcome measures tool for SSc patients, the SHAQ, was collected at the time points specified in the study schedules (FIG. 2 and FIGS. 4A and 4B) to assess the participant's quality of life. The SHAQ included a Raynaud's VAS that will also be reported separately.

participants with SSc-RP [2] = test: Average pain score recorded during weekly RP attacks (11-point Likert scale); type: in vivo, human; conditions: for Average Pain Score Change From Baseline [Mean (SD)]: Table G
From the text: The absolute change in average pain score (11-point Likert scale) of weekly RP attacks from baseline to the end of each Dosing Period will be a secondary outcome variable. The sponsor-developed participant-informed diary will be used to record data. The average pain score of weekly RP attacks is defined as the total pain scores divided by total number of RP attacks within the last 7 days of each dosing period. Average of the last 7 days of screening assessments will be used as baseline for the analysis of all periods. The variable will be calculated similar to frequency data as before.

[3] = Pooled Cilnidipine 10 mg and Cilnidipine 10 mg + Tadalafil 5 mg, PP, Part A
[4] = Pooled Cilnidipine 20 mg and Cilnidipine 20 mg + Tadalafil 5 mg, PP, Part A
[5] = Pooled Cilnidipine (N = 7), Day 12, Modified ITT Population - Part A
[6] = Pooled Cilnidipine (N = 8), Day 12, PP Population, Part A
[7] = Sensitivity Analysis (diagnosis of SSc), Modified ITT, Part A, Day 12, arms Cilnidipine 10 mg, Tadalafil 5 mg, Cilnidipine 10 mg + Tadalafil 5 mg
[8] = cilnidipine 10 mg (combination: + tadalafil 5 mg)
[9] = cilnidipine 20 mg (combination: + tadalafil 5 mg)

## COCCOC(=O)C1=C(C)NC(C)=C(C(=O)OC/C=C/c2ccccc2)C1c1cccc([N+](=O)[O-])c1 (centres unmarked) [Cilnidipine]
Participants with SSc-RP [1]; Any Cilnidipine (N = 17), Day 12, PP Population, Part A
  SHAQ Visual Analogue Scale - Overall Disease Severity, Percent Change from Baseline, Median: −42.89%
Participants with SSc-RP [1]; Cilnidipine 20 mg (n = 3)
  % change overall SSc Disease Severity: −63% (i.e.,
Participants with SSc-RP [1]; Cilnidipine 20 mg (n = 3), minus = improvement, Table A*
  SHAQ Overall Scleroderma Disease Severity, mean % change: −63%
Participants with SSc-RP [1]; [3]
  SHAQ VAS Overall Disease Severity, Change from Baseline, Max: 1.90
  SHAQ VAS Overall Disease Severity, Change from Baseline, Mean (SD): −0.606 (1.1663)
  SHAQ VAS Overall Disease Severity, Change from Baseline, Min: −1.90
  SHAQ VAS Overall Disease Severity, Change from Baseline, Q1: −1.500
  SHAQ VAS Overall Disease Severity, Change from Baseline, Q3: −0.300
  SHAQ VAS Overall Disease Severity, Day 12, Max: 6.00
  SHAQ VAS Overall Disease Severity, Day 12, Min: 0.00
  SHAQ VAS Overall Disease Severity, Day 12, Q1: 0.800
  SHAQ VAS Overall Disease Severity, Day 12, Q3: 3.800
  SHAQ VAS Overall Disease Severity, Percent Change from Baseline, Max: 100.0
  SHAQ VAS Overall Disease Severity, Percent Change from Baseline, Mean (SD): −24.68 (57.343)
  SHAQ VAS Overall Disease Severity, Percent Change from Baseline, Min: −100.0
  SHAQ VAS Overall Disease Severity, Percent Change from Baseline, Q1: −51.01
  SHAQ VAS Overall Disease Severity, Percent Change from Baseline, Q3: −16.76
Participants with SSc-RP [1]; Pooled Cilnidipine 20 mg and Cilnidipine 20 mg + Tadalafil 5 mg (N = 7), Day 12, Modified ITT Population - Part A
  SHAQ Visual Analogue Scale - Overall Disease Severity, Change from Baseline, Median: −1.500
Participants with SSc-RP [1]; Pooled Cilnidipine 20 mg and Cilnidipine 20 mg + Tadalafil 5 mg (N = 7), Modified ITT Population - Part A
  SHAQ Visual Analogue Scale - Overall Disease Severity, In-Clinic Visit (Day 12), Median: 1.200
Participants with SSc-RP [1]; [4]
  SHAQ VAS Overall Disease Severity, Change from Baseline, Max: −0.40
  SHAQ VAS Overall Disease Severity, Change from Baseline, Min: −3.10
  SHAQ VAS Overall Disease Severity, Change from Baseline, Q1: −1.750
  SHAQ VAS Overall Disease Severity, Change from Baseline, Q3: −0.650
  SHAQ VAS Overall Disease Severity, Day 12, Max: 7.30
  SHAQ VAS Overall Disease Severity, Day 12, Median: 1.300
  SHAQ VAS Overall Disease Severity, Day 12, Min: 0.50
  SHAQ VAS Overall Disease Severity, Day 12, Q1: 0.800
  SHAQ VAS Overall Disease Severity, Day 12, Q3: 1.750
  SHAQ VAS Overall Disease Severity, Percent Change from Baseline, Max: −9.9
  SHAQ VAS Overall Disease Severity, Percent Change from Baseline, Min: −76.2
  SHAQ VAS Overall Disease Severity, Percent Change from Baseline, Q1: −64.44
  SHAQ VAS Overall Disease Severity, Percent Change from Baseline, Q3: −36.22
Participants with SSc-RP [1]; [5]
  SHAQ Visual Analogue Scale - Overall Disease Severity, Change from Baseline, Mean: −1.214
  SHAQ Visual Analogue Scale - Overall Disease Severity, Percent Change from Baseline, Mean: −59.80%
  SHAQ Visual Analogue Scale - Overall Disease Severity, Percent Change from Baseline, Median: −55.86%
Participants with SSc-RP [1]; Pooled Cilnidipine (N = 7), Modified ITT Population - Part A
  SHAQ Visual Analogue Scale - Overall Disease Severity, In-Clinic Visit (Day 12), Mean: 1.486
Participants with SSc-RP [1]; [6]
  SHAQ Visual Analogue Scale - Overall Disease Severity, In-Clinic Visit (Day 12), Mean (SD): 1.475 (1.6430)
  SHAQ Visual Analogue Scale - Overall Disease Severity, In-Clinic Visit (Day 12), Median: 1.300
Participants with SSc-RP [1]; Pooled Cilnidipine (n = 7)
  % change overall SSc Disease Severity: −60% (i.e.,
Participants with SSc-RP [1]; Pooled Cilnidipine, PP, Part A
  SHAQ VAS Overall Disease Severity, Change from Baseline, Max: 0.20
  SHAQ VAS Overall Disease Severity, Change from Baseline, Mean (SD): −1.450 (0.9928)
  SHAQ VAS Overall Disease Severity, Change from Baseline, Median: −1.550
  SHAQ VAS Overall Disease Severity, Change from Baseline, Min: −3.10
  SHAQ VAS Overall Disease Severity, Change from Baseline, Q1: −1.850
  SHAQ VAS Overall Disease Severity, Change from Baseline, Q3: −0.950
  SHAQ VAS Overall Disease Severity, Day 12, Max: 5.20
  SHAQ VAS Overall Disease Severity, Day 12, Median: 1.300
  SHAQ VAS Overall Disease Severity, Day 12, Min: 0.00
  SHAQ VAS Overall Disease Severity, Day 12, Q1: 0.350
  SHAQ VAS Overall Disease Severity, Day 12, Q3: 1.650
  SHAQ VAS Overall Disease Severity, Percent Change from Baseline, Max: −26.8
  SHAQ VAS Overall Disease Severity, Percent Change from Baseline, Mean (SD): −61.10 (23.658)
  SHAQ VAS Overall Disease Severity, Percent Change from Baseline, Median: −60.00
  SHAQ VAS Overall Disease Severity, Percent Change from Baseline, Min: −100.0
  SHAQ VAS Overall Disease Severity, Percent Change from Baseline, Q1: −76.19
Participants with SSc-RP [1]; [7]
  SHAQ Visual Analogue Scale - Overall Disease Severity: Change from Baseline, Median: −1.500
  SHAQ Visual Analogue Scale - Overall Disease Severity: In-Clinic Visit (Day 12), Median: 1.900
Participants with SSc-RP [1]; Sensitivity Analysis (diagnosis of SSc), Modified ITT, Part A, Day 12, arms Cilnidipine 20 mg, Cilnidipine 20 mg + Tadalafil 5 mg
  SHAQ Visual Analogue Scale - Overall Disease Severity: In-Clinic Visit (Day 12), Median: 1.200
Participants with SSc-RP [1]; [8]
  VAS Overall Severity Change from Baseline Max: 0.20
  VAS Overall Severity Change from Baseline Mean: −0.900
  VAS Overall Severity Change from Baseline Median: −0.950
  VAS Overall Severity Change from Baseline Min: −1.90
  VAS Overall Severity Change from Baseline Q1: −1.700
  VAS Overall Severity Change from Baseline Q3: −0.100
  VAS Overall Severity Day 12 Max: 5.20
  VAS Overall Severity Day 12 Min: 0.00
  VAS Overall Severity Day 12 Q1: 0.100
  VAS Overall Severity Day 12 Q3: 3.550
  VAS Overall Severity Percent Change from Baseline Max: −26.8%
  VAS Overall Severity Percent Change from Baseline Mean: −56.96%
  VAS Overall Severity Percent Change from Baseline Median: −44.12%
  VAS Overall Severity Percent Change from Baseline Min: −100.0%
  VAS Overall Severity Percent Change from Baseline Q1: −100.00%
  VAS Overall Severity Percent Change from Baseline Q3: −26.76%
Participants with SSc-RP [1]; [9]
  VAS Overall Severity Change from Baseline Max: −1.50
  VAS Overall Severity Change from Baseline Mean: −1.633,
  VAS Overall Severity Change from Baseline Median: −1.600
  VAS Overall Severity Change from Baseline Min: −1.80
  VAS Overall Severity Change from Baseline Q1: −1.800
  VAS Overall Severity Change from Baseline Q3: −1.500
  VAS Overall Severity Day 12 Max: 1.40
  VAS Overall Severity Day 12 Median: 1.200
  VAS Overall Severity Day 12 Min: 0.50
  VAS Overall Severity Day 12 Q1: 0.500
  VAS Overall Severity Day 12 Q3: 1.400
  VAS Overall Severity Percent Change from Baseline Max: −51.7%
  VAS Overall Severity Percent Change from Baseline Mean: −62.64%
  VAS Overall Severity Percent Change from Baseline Median: −60.00%
  VAS Overall Severity Percent Change from Baseline Min: −76.2%
  VAS Overall Severity Percent Change from Baseline Q1: −76.19%
  VAS Overall Severity Percent Change from Baseline Q3: −51.72%
Participants with SSc-RP [2]; Cilnidipine 10 mg (n = 4)
  Average Pain Score Change From Baseline [Mean (SD)]: 0.47
Participants with SSc-RP [2]; Cilnidipine 20 mg (n = 3)
  Average Raynaud's Pain (change): 12%
  Average Pain Score Change From Baseline [Mean (SD)]: −0.47
Participants with SSc-RP [2]; Pooled Cilnidipine (n = 7)
  Average Raynaud's Pain (change): −27%
